Data from patent publication US20060100245A1, “Substituted biphenyl-4-carboxylic acid arylamide analogues” (Neurogen Corporation, priority 2002, published 2006).

Each molecule was assayed against T1, human capsaicin receptor (VR1) (Homo sapiens, UniProt Q8NER1) (assay: Capsaicin receptor binding assay ([3H]RTX competition)). Conditions: read-out: Ki.
T1 construct: transfected with the pBK-CMV expression construct encoding the full length human capsaicin receptor; expressed in transfected cells
T1 sequence (Q8NER1 whole entry): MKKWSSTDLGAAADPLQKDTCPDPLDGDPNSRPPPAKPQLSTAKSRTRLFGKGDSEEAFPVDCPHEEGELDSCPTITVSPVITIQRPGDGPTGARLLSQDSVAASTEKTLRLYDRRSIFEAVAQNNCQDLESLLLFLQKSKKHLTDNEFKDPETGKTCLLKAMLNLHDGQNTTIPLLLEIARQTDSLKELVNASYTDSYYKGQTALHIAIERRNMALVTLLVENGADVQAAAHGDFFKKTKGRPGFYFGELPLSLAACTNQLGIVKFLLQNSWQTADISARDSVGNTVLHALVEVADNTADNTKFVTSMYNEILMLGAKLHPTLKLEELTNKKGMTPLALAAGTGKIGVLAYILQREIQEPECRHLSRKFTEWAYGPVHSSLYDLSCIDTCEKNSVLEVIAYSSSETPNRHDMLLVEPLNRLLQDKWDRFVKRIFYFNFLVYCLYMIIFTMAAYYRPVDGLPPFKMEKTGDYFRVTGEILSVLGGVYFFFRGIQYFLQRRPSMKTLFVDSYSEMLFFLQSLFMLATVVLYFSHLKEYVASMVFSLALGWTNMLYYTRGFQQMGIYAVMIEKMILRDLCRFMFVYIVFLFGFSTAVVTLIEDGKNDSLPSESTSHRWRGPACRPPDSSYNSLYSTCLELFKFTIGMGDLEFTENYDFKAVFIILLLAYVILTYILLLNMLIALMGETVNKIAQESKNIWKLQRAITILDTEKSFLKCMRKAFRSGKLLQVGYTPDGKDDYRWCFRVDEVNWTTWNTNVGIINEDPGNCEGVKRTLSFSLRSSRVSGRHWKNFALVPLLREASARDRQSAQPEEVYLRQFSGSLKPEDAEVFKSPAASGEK
Text: This Example illustrates the preparation of VR1-transfected cells and membrane preparations for use in binding assays (Example 5) and functional assays (Example 6).
A cDNA encoding full length human capsaicin receptor (SEQ ID NO: 1, 2 or 3 of U.S. Pat. No. 6,482,611) was subcloned in the plasmid pBK-CMV (Stratagene, La Jolla, Calif.) for recombinant expression in mammalian cells.
Human embryonic kidney (HEK293) cells were transfected with the pBK-CMV expression construct encoding the full length human capsaicin receptor using standard methods. The transfected cells were selected for two weeks in media containing G418 ([…]) to obtain a pool of stably transfected cells. Independent clones were isolated from this pool by limiting dilution to obtain clonal stable cell lines for use in subsequent experiments.
For radioligand binding experiments, cells were seeded in T175 cell culture flasks in media without antibiotics and grown to approximately 90% confluency. The flasks were then washed with PBS and harvested in PBS containing 5 mM EDTA. The cells were pelleted by gentle centrifugation and stored at −80° C. until assayed.
Previously frozen cells were disrupted with the aid of a tissue homogenizer in ice-cold HEPES homogenization buffer (5mM KCl 5, 5.8 mM NaCl, 0.75 mM CaCl2, 2 mM MgCl2, 320 mM sucrose, and 10 mM HEPES pH 7.4). Tissue homogenates were first centrifuged for 10 minutes at 1000×g (4° C.) to remove the nuclear fraction and debris, and then the supernatant from the first centrifugation is further centrifuged for 30 minutes at 35,000×g (4° C.) to obtain a partially purified membrane fraction. Membranes were resuspended in the HEPES homogenization buffer prior to the assay. An aliquot of this membrane homogenate is used to determine protein concentration via the Bradford method (BIO-RAD Protein Assay Kit, #500-0001, BIO-RAD, Hercules, Calif.).
This Example illustrates a representative assay of capsaicin receptor binding that may be used to determine the binding affinity of compounds for the capsaicin (VR1) receptor.
Binding studies with [^3H] Resiniferatoxin (RTX) are carried out essentially as described by Szallasi and Blumberg (1992) J. Pharmacol. Exp. Ter. 262: 883-888. In this protocol, non-specific RTX binding is reduced by adding bovine alpha, acid glycoprotein (100 μg per tube) after the binding reaction has been terminated.
[^3H] RTX (37 Ci/mmol) is synthesized by and obtained from the Chemical Synthesis and Analysis Laboratory, National Cancer Institute-Frederick Cancer Research and Development Center, Frederick, Md. [^3H] RTX may also be obtained from commercial vendors (e.g., Amersham Pharmacia Biotech, Inc.; Piscataway, N.J.).
The membrane homogenate of Example 4 is centrifuged as before and resuspended to a protein concentration of 333 μg/ml in homogenization buffer. Binding assay mixtures are set up on ice and contain [^3H]JRTX (specific activity 2200 mCi/ml), 2 μl non-radioactive test compound, 0.25 mg/ml bovine serum albumin (Cohn fraction V), and 5×10^4−1×10^5 VR1-transfected cells. The final volume is adjusted to 500 μl (for competition binding assays) or 1,000 μl (for saturation binding assays) with the ice-cold HEPES homogenization buffer solution (pH 7.4) described above. Non-specific binding is defined as that occurring in the presence of 1 μM non-radioactive RTX (Alexis Corp.; San Diego, Calif.). For saturation binding, [^3H]RTX is added in the concentration range of […], using 1 to 2 dilutions. Typically 11 concentration points are collected per saturation binding curve.
Competition binding assays are performed in the presence of 60 pM [^3H]RTX and various concentrations of test compound. The binding reactions are initiated by transferring the assay mixtures into a 37° C. water bath and are terminated following a 60 minute incubation period by cooling the tubes on ice.
Work on `CC(C)(C)c1ccc(NC(=O)c2ccc(-c3ccccc3N)nc2)cc1` [Compound 61, 6-(2-Amino-phenyl)-N-(4-tert-butyl-phenyl)-nicotinamide] yielded a Ki of less than 1000 nM. `O=C(Nc1ccccc1C(F)(F)F)c1ccc(-c2ccccc2Cl)nc1` [Compound 64, 6-(2-Chloro-phenyl)-N-(2-trifluoromethyl-phenyl)-nicotinamide] showed a Ki of less than 1000 nM. `CCCc1ccc(NC(=O)c2ccc(-c3ccccc3Cl)nc2)cc1` [Compound 77, 6-(2-Chloro-phenyl)-N-(4-propyl-phenyl)-nicotinamide] gave a Ki of less than 1000 nM. With `O=C(Nc1ccc(C(F)(F)F)cc1)c1ccc(-c2ccccc2Cl)nc1` [Compound 78, 6-(2-Chloro-phenyl)-N-(4-trifluoromethyl-phenyl)-nicotinamide] the Ki was less than 1000 nM. With `O=C(Nc1ccccc1)c1ccc(-c2ccccc2Cl)nc1` [Compound 81, 6-(2-Chloro-phenyl)-N-phenyl-nicotinamide] the Ki was less than 1000 nM. `O=C(Nc1cnc2ccccc2c1)c1ccc(-c2ccccc2Cl)nc1` [Compound 82, 6-(2-Chloro-phenyl)-N-quinolin-3-yl-nicotinamide] was tested, and the Ki was less than 1000 nM. With `Cc1nc2cc(NC(=O)c3ccc(-c4ccccc4F)nc3)ccc2s1` [Compound 85, 6-(2-Fluoro-phenyl)-N-(2-methyl-benzothiazol-5-yl)-nicotinamide] the Ki was less than 1000 nM. `COc1cccc(NC(=O)c2ccc(-c3ccccc3F)nc2)c1` [Compound 87, 6-(2-Fluoro-phenyl)-N-(3-methoxy-phenyl)-nicotinamide] was tested, and the Ki was less than 1000 nM. For `O=C(Nc1cccc(C(F)(F)F)c1)c1ccc(-c2ccccc2F)nc1` [Compound 88, 6-(2-Fluoro-phenyl)-N-(3-trifluoromethyl-phenyl)-nicotinamide], the Ki was less than 1000 nM. `CC(C)c1ccc(NC(=O)c2ccc(-c3ccccc3F)nc2)cc1` [Compound 89, 6-(2-Fluoro-phenyl)-N-(4-isopropyl-phenyl)-nicotinamide] was tested, and the Ki was less than 1000 nM. With `CCCc1ccc(NC(=O)c2ccc(-c3ccccc3F)nc2)cc1` [Compound 91, 6-(2-Fluoro-phenyl)-N-(4-propyl-phenyl)-nicotinamide] the Ki was less than 1000 nM. `O=C(Nc1ccc(C(F)(F)F)cc1)c1ccc(-c2ccccc2F)nc1` [Compound 92, 6-(2-Fluoro-phenyl)-N-(4-trifluoromethyl-phenyl)-nicotinamide] gave a Ki of less than 1000 nM. `O=C(Nc1ccc2c(c1)CCC2)c1ccc(-c2ccccc2F)nc1` [Compound 93, 6-(2-Fluoro-phenyl)-N-indan-5-yl-nicotinamide] gave a Ki of less than 1000 nM. `COc1ccccc1-c1ccc(C(=O)Nc2ccc(C(F)(F)F)cc2)cn1` [Compound 99, 6-(2-Methoxy-phenyl)-N-(4-trifluoromethyl-phenyl)-nicotinamide] showed a Ki of less than 1000 nM. In the case of `Cc1ccc(-c2ccc(C(=O)Nc3ccc4c(c3)CCC4)cn2)cc1C` [Compound 109, 6-(3,4-Dimethyl-phenyl)-N-indan-5-yl-nicotinamide], the Ki is reported as less than 1000 nM. `Cc1cc(C)cc(-c2ccc(C(=O)Nc3ccc(C)c(F)c3)cn2)c1` [Compound 110, 6-(3,5-Dimethyl-phenyl)-N-(3-fluoro-4-methyl-phenyl)-nicotinamide] was tested, and the Ki was less than 1000 nM. In the case of `O=C(Nc1ccc2c(c1)CCC2)c1ccc(-c2cccc(Cl)c2)nc1` [Compound 116, 6-(3-Chloro-phenyl)-N-indan-5-yl-nicotinamide], the Ki is reported as less than 1000 nM. In the case of `CCOc1cccc(-c2ccc(C(=O)Nc3ccc4sc(C)nc4c3)cn2)c1` [Compound 119, 6-(3-Ethoxy-phenyl)-N-(2-smethyl-benzothiazol-5-yl)-nicotinamide], the Ki is reported as less than 1000 nM. Work on `CCOc1cccc(-c2ccc(C(=O)Nc3ccc(C)c(F)c3)cn2)c1` [Compound 120, 6-(3-Ethoxyphenyl)-N-(3-fluoro-4-methyl-phenyl)-nicotinamide] yielded a Ki of less than 1000 nM. Work on `CCOc1cccc(-c2ccc(C(=O)Nc3ccc4c(c3)CCC4)cn2)c1` [Compound 124, 6-(3-Ethoxy-phenyl)-N-indan-5-yl-nicotinamide] yielded a Ki of less than 1000 nM. For `Cc1nc2cc(NC(=O)c3ccc(-c4cccc(F)c4)nc3)ccc2s1` [Compound 125], the Ki was less than 1000 nM.
